Reference: patent US20010009764A1, “Endothelial-derived toxic factor” (priority 1997, published 2001)

Legend:
[1] = tested on: primary cerebral cortical cultures; assay: Neurotoxicity (LDH release) of AD microvessel-conditioned medium; format: cell-based, rat
Protocol: Microvessels stored in liquid nitrogen, were quick-thawed at 37° C. and centrifuged at 2,000×g for 10 min. The vessels were washed 3 times with cold Hank's balanced salt-solution and resuspended in serum-free DMEM (2 ml) containing 1% lactalbumin hydrolysate. Microvessels were allowed to “recover” for 1 h, after which they released little LDH. The microvessels were washed by centrifugation and resuspended at a concentration of 100 μg protein per ml in serum-free DMEM containing 1% lactalbumin hydrolysate. The microvessels were then incubated for variable times (4-24 h) in a CO2 incubator, centrifuged, and the conditioned medium was sterile-filtered through a 0.4 μm filter, and used immediately.
Procedures for primary neuronal cultures prepared from fetal rat brains were previously described (Grammas P, Moore P, Weigel P H, “Production of Neurotoxic Factors by Brain Endothelium in AD”, Ann. NY Acad. Sci., 826, 1997, which is hereby incorporated herein by reference.) Neurons are obtained and cultured from 17 day fetal rats. […] The purity of these cultures was determined by antibody reactivity to neuronal-specific enolase.
Cell death by necrosis was determined by release of cytoplasmic lactate dehydrogenase (LDH) (Grammas et al., “Production Of Neurotoxic Factors By Brain Endothelium In AD”, Ann NY Acad Sci, 826:47-55, 1997). […] The A490 of each well was measured to determine LDH activity. […]

neuronal cultures [2] = assay: Neuronal cytotoxicity (LDH release) of conditioned media from rat brain endothelial cells treated with PKC modulators; format: cell-based; conditions: for cytotoxic response as % of that elicited by BIM: inhibitor 1 μM on endothelial cells, BIM-mediated cytotoxicity = 100%; for EDTF^BIM release from endothelial cell cultures: treatment with other PKC inhibitors
Protocol: FIG. 8. Specificity of endothelial derived toxic factor EDTF response to Protein Kinase C inhibition. To confirm that production of EDTF in response to BIM (EDTF^BIM) was indeed related to PKC inhibition, the effect of other PKC inhibitors, calphostin (Cal) and stauroporine (S'sporin) as well as the PKC agonist PMA, were examined. Endothelial cell cultures were incubated in serum-free media (control) containing either BIM (1 μM); BIM and PMA (1 μM each); calphostin (1 μM); or staurosporine (1 μM). The media were collected after 24 hours and added to neuronal cultures and cytotoxicity (LDH release) was measured after 24 hours. Data are expressed as a percentage of the BIM-mediated cytotoxicity (100%).
(§1) Cell death by necrosis was determined by release of cytoplasmic lactate dehydrogenase (LDH) (Grammas et al., “Production Of Neurotoxic Factors By Brain Endothelium In AD”, Ann NY Acad Sci, 826:47-55, 1997). Medium (100 μl) from the neuronal cultures was removed, added to a 96-well plate, the chromogenic substrate added, and the plate was incubated at room temperature for 30 min in darkness. The A490 of each well was measured to determine LDH activity. Data (% cytotoxicity) were expressed as a percentage of total LDH released by treatment with 1% Triton X-100 added to the same well. Vascular LDH release, determined for microvessel-containing inserts placed in wells without neuronal cells, was subtracted from each co-culture point. Each point was performed in duplicate.
For the preparation of endothelial-conditioned media, the media were removed and confluent endothelial cell cultures washed with versene and fresh serum-free DMEM containing (unless otherwise indicated) 1 μM of the PKC inhibitor, bisindolylmaleimide (BIM), was added. The conditioned medium was collected, after 8-24 hrs, and centrifuged at 100,000 g to remove debris and suspended cells, and 5% heat-inactivated horse serum was added prior to application of media to neuronal cultures.
Neurons were obtained and cultured from 15-18 day rat embryos by published methods (Dawson V. L., Dawson, T. M., London E. D., Bredt D. S., Snyder S. H., “Nitric Oxide Mediates Glutamate Neurotoxicity in Primary Cortical Cultures”, Proc. Natl. Acad. Sci. USA, 88:6368-6371, 1991, with our modifications: Grammas P, Moore P, Weigel P H, “Production of Neurotoxic Factors by Brain Endothelium in AD”, Ann. NY Acad. Sci., 826, 1997). Cerebral cortices were isolated, dissociated in Brooks-Logan solution (5% phosphate buffered saline, 0.04 M sucrose, 10 mM HEPES, pH 7.5, 0.03 M glucose) by trituration and seeded in polylysine-coated 24 well plates (15), containing DMEM with 5% heat-inactivated horse serum. After five days of culture, the cells were treated with 10 μg of 5-fluoro-2′-deoxyuridine per well and cultures were maintained for an additional 2 to 3 weeks.

[3] = tested on: primary cerebral cortical cultures; assay: Neuronal necrosis by candidate molecules at 4 h; format: cell-based, rat; conditions: data not shown
Protocol: as §1

neuronal cultures [4] = format: cell-based, rat
Protocol: as §1
Neurons were obtained and cultured from 15-18 day rat embryos by published methods (Dawson V. L., Dawson, T. M., London E. D., Bredt D. S., Snyder S. H., “Nitric Oxide Mediates Glutamate Neurotoxicity in Primary Cortical Cultures”, Proc. Natl. Acad. Sci. USA, 88:6368-6371, 1991, with our modifications: Grammas P, Moore P, Weigel P H, “Production of Neurotoxic Factors by Brain Endothelium in AD”, Ann. NY Acad. Sci., 826, 1997). […]

endothelial cultures = format: cell-based, rat
Protocol: as §1
Small arterioles from rat brain were isolated, and endothelial cell cultures initiated, as previously published (Diglio C. A., Grammas P., Giacomelli F. and Wiener J., “Rat Cerebral Microvascular Smooth Muscle Cells in Culture”, J. Cell Physiol., 129:131-141, 1986; Diglio C. A., Liu W., Grammas P., Giacomelli F., and Wiener J., “Isolation and Characterization of Cerebral Resistance Vessel Endothelium in Culture”, Tissue and Cell, 25:833-846, 1993). […] Cells (passages 10-15) were maintained in Dulbecco's modified Eagle's medium (DMEM) and 10% fetal calf serum and subcultured using trypsin-versene (0.025%).

N=C(NCCC[C@H](N)C(=O)O)N[N+](=O)[O-] [N^GNitro-L-arginine]
% neurotoxicity of conditioned medium ([1]; AD microvessels with or without preincubation with 10 μM N^GNitro-L-arginine): 69±12%

calphostin
cytotoxic response as % of that elicited by BIM (neuronal cultures [2]): 60%
EDTF^BIM release from endothelial cell cultures (neuronal cultures [2]): elicited EDTF^BIM release

CN[C@@H]1C[C@H]2O[C@@](C)([C@@H]1OC)n1c3ccccc3c3c4c(c5c6ccccc6n2c5c31)C(=O)NC4 [staurosporine]
cytotoxic response as % of that elicited by BIM (neuronal cultures [2]): 47%

C[C@@H]1C[C@@H]([C@H](O)CC2CC(=O)NC(=O)C2)C(=O)[C@@H](C)C1 [cycloheximide]
decrease in neuronal necrosis ([1]; AD microvessels incubated with cycloheximide 10 μg/ml): 60%

amyloid β
neuronal necrosis at 4 h [3]: little neuronal necrosis

CCCCCCCCCCCCC/C=C/[C@@H](O)[C@@H](N)CO [sphingosine]
EDTF^BIM release from endothelial cell cultures (neuronal cultures [2]): elicited EDTF^BIM release

CCCCCCCCCCCCCC(=O)O[C@@H]1[C@@H](C)[C@@]2(O)[C@@H](C=C(CO)C[C@]3(O)C(=O)C(C)=C[C@@H]23)[C@@H]2C(C)(C)[C@]12OC(C)=O [PMA, phorbol myristate acetate]
reduction of neuronal cytotoxicity (EDTF^BIM release) compared to BIM alone (neuronal cultures [2]; concurrent PMA and BIM, 1 μM each, media collected 24 hours, LDH after 24 hours): approximately 60%

bisindolylmaleimide [BIM]
% cytotoxicity when added directly to neuronal cultures (neuronal cultures [4]): 16%
% cytotoxicity on endothelial cultures (endothelial cultures): 10%

tumor necrosis factor α
neuronal necrosis at 4 h [3]: little neuronal necrosis
